# Values of other authors, collected in patent publication US8058278B2, “Methods of enhancing mucosal hydration and mucosal clearance by treatment with sodium channel blockers and osmolytes” (Parion Sciences, Inc., priority 2006, dated 2011).
# Tested on: water permeability of airways
# Settings: amiloride used concurrently with hypertonic saline
smiles,measurement,value
"N=C(N)NC(=O)c1nc(Cl)c(N)nc1N [Amiloride, amiloride]",effect on water permeability of airways,block the water permeability of airways
